Data reported in the supplement of paper PMC10290057.
Structures can show the parent of a compound that is named as a salt.

Tested on: HCT116
Test: efficacy (fitted maximal change in viability relative to DMSO control); higher = less cytotoxic (negative = loss of viability)
Settings: 48 h
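Also: Luminescence-based viability readout, five doses per compound, normalized against on-plate DMSO and empty-well controls, followed by dose-response curve fitting for every drug.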

Structure (SMILES) | efficacy
C/C=C(/C)C(=O)O[C@H]1C(C)=CC23C(=O)C(C=C(CO)[C@@H](O)[C@]12O)[C@H]1[C@@H](C[C@H]3C)C1(C)C (some centres not stated) [Ingenol mebutate] | -63.6%
Cn1cc(-c2ccc3nnc(Sc4ccc5ncccc5c4)n3n2)cn1 [SGX-523] | -6.72%
N[C@@H](Cc1cc(I)c(Oc2cc(I)c(O)c(I)c2)c(I)c1)C(=O)O [L-Thyroxine] | -8.54%
Clc1cccc(C(c2ccc3nc[nH]c3c2)n2ccnc2)c1 (configuration not stated) [Liarozole] | -23%
CN1\C(=C([O-])/C2=CC=CC=C2[S+]1([O-])=O)C(=O)NC3=NC=C(C)S3 [MELOXICAM SODIUM] | 9%
N#CC(O[C@@H]1O[C@H](CO[C@@H]2O[C@H](CO)[C@@H](O)[C@H](O)[C@H]2O)[C@@H](O)[C@H](O)[C@H]1O)c1ccccc1 (some centres not stated) [Amygdalin] | 29%
COC1=C2C[C@H](C)C[C@H](OC)[C@H](O)[C@@H](C)/C=C(/C)[C@H](OC(N)=O)[C@@H](OC)/C=C\C=C(\C)C(=O)NC(=CC1=O)C2=O [Geldanamycin] | -57.3%
CN[C@@H]1CN(C[C@H]1OC)C2=NC3=C(C=C2)C(=O)C(=C\N3C4=NC=CS4)/C(O)=O [Vosaroxin] | -17.8%
OC(CCN1CCCCC1)(C2CC\3CC2\C=C3)C4=CC=CC=C4 (configuration not stated) [Biperiden] | -34.7%
O=C(O)CCCc1c[nH]c2ccccc12 [3-indolebutyric acid] | 15%
N\C1=N\C2=C(N=C[N]2COCCO)C(=O)N1 [Aciclovir] | -8.84%
CCCCCCCCCCCCCCCCOCCCO[P](O)(=O)COC(CO)CN1/C=C\C(=N/C1=O)N (configuration not stated) [Brincidofovir] | -6.44%
C=CC[N+]1([C@H]2C[C@H]3[C@@H]4CC[C@H]5C[C@H](O)[C@@H](N6CCOCC6)C[C@]5(C)[C@H]4CC[C@]3(C)[C@H]2OC(C)=O)CCCC1 [Rocuronium bromide] | -14.6%
CC(C)[C@H]1C(=O)N[C@H](CO)Cc2c[nH]c3cccc(c23)N1C [(-)-Indolactam V] | 9.83%
O=C(Nc1ccccc1)Nc1ccc(-c2ccc(C(=O)[C@@H]3CCC[C@H]3C(=O)O)cc2)cc1 | -8.51%
CC[S+](=O)([O-])N1CCC([C@@H](C)n2c(C)c(/C(O)=N/Cc3c(OC)cc(C)nc3O)c3ccccc32)CC1 (racemic) [CPI-169 racemate] | -16.2%
CN(CCOc1ccc(N[S+](C)(=O)[O-])cc1)CCc1ccc(N[S+](C)(=O)[O-])cc1 [Dofetilide] | -5.68%
OC[C@H]1O[C@@H](OC2=CC3=C(C=C2)C(=O)\C(=C/O3)C4=CC=C(O)C=C4)[C@H](O)[C@@H](O)[C@@H]1O [Daidzin] | -23.3%
Cc1cc(C)c([S+](=O)([O-])N(CCc2cccc(Br)c2)Cc2ccc(-c3cccc([S+](C)(=O)[O-])c3)cc2)c(C)c1 [SR-9243] | 15.4%
CC[C@H](NC(=O)[C@H](C[S+](=O)([O-])CC1CC1)N[C@@H](c1ccc(F)cc1)C(F)(F)F)C(=O)C(=O)NC1CC1 [VBY-825] | -25.3%
COc1cc([C@H]2Oc3cc([C@H]4Oc5cc(O)cc(O)c5C(=O)[C@@H]4O)ccc3O[C@@H]2CO)ccc1O [Silybin] | -13.3%
Cc1cccc(-c2nn(C(=S)Nc3ccccc3)cc2-c2ccnc3ccccc23)n1 [A-83-01] | -22.3%
COc1cc(C[C@@H](CO)[C@H](CO)Cc2ccc(O)c(OC)c2)ccc1O [Secoisolariciresinol] | 9%

Structure (SMILES) | efficacy
O=C1CC[C@H](N2Cc3c(OCc4ccc(CN5CCOCC5)cc4)cccc3C2=O)C(=O)N1 [Iberdomide] | -18.8%
COc1ccc(-c2ccc3cc(C(=O)O)ccc3c2)cc1C12CC3CC(CC(C3)C1)C2 [Adapalene] | 9.71%
NC(=O)c1cccc(-c2cccc(OC(=O)NC3CCCCC3)c2)c1 [KDS-4103] | -18%
O=C1N\N=C(\C[C@@H]2CCN(C2)C(=O)C3CC3)N1C4=CC=C(C=C4)C5=CC=C6OC=CC6=C5 | -40.3%
CNC[C@H](O)c1ccc(O)c(O)c1 [Epinephrine] | -17.8%
O=C(O)CCNc1cc(N2CCc3ccccc3CC2)nc(-c2cccnc2)n1 [GSK-J2] | -21.7%
c1ccc(CNCc2ccc(CN3CCCNCCNCCCNCC3)cc2)nc1 [AMD-3465] | -13.1%
CC[C@H](C)C(=O)O[C@H]1C[C@H](O)\C=C2\C=C/[C@H](C)[C@H](CC[C@@H](O)C[C@@H](O)CC(O)=O)[C@@H]12 [Pravastatin sodium] | -7.8%
NC(=O)c1noc([C@H](CCCC2CCCCC2)CC(=O)NO)n1 | -86.4%
C#C[C@]1(O)CC[C@H]2[C@@H]3CCc4cc(O)ccc4[C@H]3CC[C@@]21C [Ethinylestradiol] | -54.2%
CN1C(=O)COc2c(C(=O)NC3CN4CCC3CC4)cc(Cl)cc21 (configuration not stated) [Azasetron hydrochloride] | 21.5%
CCCn1c(=O)c2[nH]c(-c3cnn(Cc4cccc(C(F)(F)F)c4)c3)nc2n(CC)c1=O [CVT-6883] | -14.4%
CN1CCN(CCCNc2ncc(Cl)c(-c3cc4c(C(=O)NC5CC5)cccc4s3)n2)CC1 | -28.8%
CCN([C@H]1CC[C@@H](CC1)N(C)CCOC)C2=C(C)C(=CC(=C2)C#CCN3CCOCC3)C(=O)NC\C4=C(C)\C=C(\C)NC4=O | -10.4%
C[C@]12COC(=O)C[C@@H]1CC[C@@H]1[C@@H]2CC[C@@]2(C)[C@H]1CC[C@]2(C)O [Oxandrolone] | -21.6%
O=C1NC(=O)/C(=C/c2ccc(-c3ccc(F)cc3O)o2)S1 | -29.8%
CC(=O)O[C@H]1C[C@@H]2CC[C@@H]3[C@H](CC[C@@]4(C)[C@H]3C[C@H]([N+]3(C)CCCCC3)[C@@H]4OC(C)=O)[C@@]2(C)C[C@@H]1N1CCCCC1.[Br-] [Vecuronium bromide] | -10.9%
Cc1csc(NC(=O)c2sc3nc4c(c(C(F)(F)F)c3c2N)CCC4)n1 [Irestatin 9389] | -42%
CO[C@H]1C[C@@H]2CC[C@@H](C)[C@@](O)(O2)C(=O)C(=O)N2CCCC[C@H]2C(=O)O[C@H]([C@H](C)C[C@@H]2CC[C@@H](OCCO)[C@H](OC)C2)CC(=O)[C@H](C)/C=C(/C)[C@@H](O)[C@@H](OC)C(=O)[C@H](C)C[C@H](C)\C=C/C=C\C=C/1C [Everolimus] | -57.4%
CCc1cccc2c3c([nH]c12)[C@@](CC)(CC(=O)O)OCC3 [R-Etodolac] | -22.7%
COC(=O)N(C)c1c(N)nc(-c2nn(Cc3ccccc3F)c3ncccc23)nc1N [Riociguat] | -5.69%
N=C(N)NC(=O)c1nc(Cl)c(N)nc1N [Amiloride hydrochloride] | -10.8%
C/C(=C\c1csc(C)n1)[C@@H]1C[C@@H]2O[C@@H]2CCC[C@H](C)[C@H](O)[C@@H](C)C(=O)C(C)(C)[C@@H](O)CC(=O)O1 [Epothilone A] | -68.2%

Structure (SMILES) | efficacy
O=C(CO)N1CCC(c2n[nH]c(-c3ccc(Cl)cc3)c2-c2ccncn2)CC1 [SD-06] | 17.8%
C[C@H]1COC/2=C1/C(=O)C(=O)C3=C4CCCC(C)(C)C4=CC=C23 [Cryptotanshinone] | -30%
CC(=O)N[C@H]1CSSC[C@@H](C(N)=O)NC(=O)[C@H](C(C)C)NC(=O)[C@H](C)NC(=O)[C@H](Cc2cnc[nH]2)NC1=O [Exherin] | -8%
CC1(C)CC(=O)c2c(C(F)(F)F)nn(-c3ccc(C(N)=O)c(NC4CCC(O)CC4)c3)c2C1 (configuration not stated) [SNX-2112] | -53.8%
Clc1ccc(-c2nc3sccn3c2/C=N/OCc2ccc(Cl)c(Cl)c2)cc1 [CITCO] | -19.4%
O=C(NCc1ccccc1)[C@H](Cc1ccccc1)NC(=O)[C@H]1O[C@@H]1C(=O)NCCc1ccc(O)cc1 [CAA-0225] | -24.8%
C[C@H](CCC(=O)O)[C@H]1CCC2C3C[C@H](O)[C@@H]4C[C@H](O)CC[C@]4(C)C3CC[C@@]21C (some centres not stated) [Hyodeoxycholic acid] | 5.2%
COc1ccc(-c2cnc3c(-c4cccc5ncccc45)cnn3c2)cc1 [ML-347] | 9.54%
Cn1cc(-c2ccc3c(c2)CCN3C(=O)Cc2cccc(C(F)(F)F)c2)c2c(N)ncnc21 | -17.9%
CCC(=O)O[C@@]1([C@@H](C)C[C@H]2[C@@H]3CCC/4=C/C(=O)/C=C\[C@]4(C)[C@@]3(F)[C@@H](O)C[C@]12C)C(=O)CCl [Clobetasol propionate] | -57.1%
NC(=O)c1cc(F)cc2c1C(=O)N(C1CCN(C3CCC(F)(F)CC3)CC1)C2 [NMS-P118] | -18.7%
OC[C@H]1O[C@H]([C@H](O)[C@@H]1O)N2\C=C/C(=O)NC2=O [Uridine] | -9.88%
[2H]C([2H])(Nc1nc(-c2ccccc2C([2H])(C([2H])([2H])[2H])C([2H])([2H])[2H])ncc1C)c1ccc(-n2ccnn2)cc1 [ML-323] | -36.2%
CC(C)(O)[C@H]1CC[C@@](C)([C@H]2[C@@H](O)C[C@@]3(C)[C@@H]4C[C@H](O[C@@H]5O[C@H](CO)[C@@H](O)[C@H](O)[C@H]5O)[C@H]5C(C)(C)[C@@H](O[C@@H]6OC[C@@H](O)[C@H](O)[C@H]6O)CC[C@@]56C[C@@]46CC[C@]23C)O1 [Astragaloside A] | 6.04%
CN(CC1=CC2=C(N\C(=N/C2=O)C)C=C1)C3=CC=C(S3)C(=O)N[C@@H](CCC(O)=O)C(O)=O [Raltitrexed] | -59%
COC1=CC=C(C=C1)C2CC(=N/N2C3=CC=C(C=C3)[S+](N)([O-])=O)\C4=CC=CC=C4 (configuration not stated) [ML-141] | -60%
CCNC(=O)CCC/C=C\C[C@@H]1[C@@H](/C=C/C(O)CCc2ccccc2)[C@@H](O)C[C@@H]1O (some centres not stated) [Bimatoprost] | -24.4%
CC(C)(C)NC(=O)[C@H]1CC[C@H]2[C@@H]3CC[C@H]4NC(=O)\C=C/[C@]4(C)[C@H]3CC[C@]12C [Finasteride] | -16.1%
C[S+](=O)([O-])N(Cc1ccco1)CC(O)Cn1c2ccccc2c2ccccc21 (configuration not stated) [KL001] | -21.8%
CCCCCCCN(CC)CCCC(O)c1ccc(N[S+](C)(=O)[O-])cc1 (configuration not stated) [Ibutilide fumarate] | -59.1%
CC(C)OC(=O)[C@H](C)N[P@](=O)(OC[C@H]1O[C@@H](N2\C=C/C(=O)NC2=O)[C@](C)(F)[C@@H]1O)OC3=CC=CC=C3 [Sofosbuvir] | -5.68%
